Measurements reported in patent publication US6004934A, “Tetrapeptide derivative” (Teikoku Hormone Mfg. Co., Ltd., priority 1991, dated 1999).
In brackets after ≈: the same amount, converted by molar mass.

System: lymphocytic leukemia P388 cells
Assay: screening of cytostatic activity using lymphocytic leukemia P388 cells
Type: cell-based
Excerpt: The screening of cytostatic activity was made using lymphocytic leukemia P388 cells.

In the case of `CC[C@H](C)[C@@H]([C@@H](CC(=O)N1CCC[C@H]1[C@H](OC)[C@@H](C)C(=O)N[C@@H](Cc1ccccc1)c1nccs1)OC)N(C)C(=O)[C@@H](NC(=O)[C@H](C(C)C)N(C)C)C(C)C` [Dolastatin 10], the ED50 is reported as 0.7 ng/mL (≈ 0.892 nM).
